# Patent publication US8742203B2, “Chemically Inducible Expression of Biosynthetic Pathways” (Metabolix, Inc., priority 2005, dated 2014)
# Test system: 1I Arabidopsis plants
# Assay: PHB yield in 1I plants, foliar applications of tebufenozide
# Type: in vivo, Arabidopsis thaliana
# Text: The genes required for the complete PHB production pathway, a β-ketothiolase (thiolase), an NADPH-acetoacetyl-CoA reductase (reductase) and a PHA synthase (synthase), were individually placed under the control of the minimal ^35S ecdysone-inducible promoter, fused to a plastid targeting signal, and cloned into a pCAMBIA (Centre for Application of Molecular Biology to International Agriculture, Canberra, Australia) based multigene plasmid containing the chimeric ecdysone receptor (A. Martinez, C. Sparks, C. A. Hart, J. Thompson, I. Jepson, Plant J. 19: 97 (1999)). This three-gene inducible construct is designated 3I. The single-gene inducible construct designated 1I contained the thiolase gene under the control of the inducible promoter, but unlike the 3I construct, it expressed the reductase and synthase genes under the control of the constitutive 35S-C4PPDK promoter (W. Chiu et al. Curr. Biol. 6: 325 (1996)).
# Further analysis of the 1I construct by screening an additional 235 T1 1I plants identified plants capable of producing 2.5% and 2.6% dwt PHB respectively, in the presence and absence of foliar applications of the inducing agent tebufenozide. The ability of this construct to promote PHB production in a non-inducible fashion was confirmed through analysis of 72 T2 offspring of the best T1 1I plant. […]
compound,measurement,setting,value
CCc1ccc(C(=O)NN(C(=O)c2cc(C)cc(C)c2)C(C)(C)C)cc1 [tebufenozide],PHB produced by best plants,"additional 235 T1 1I plants screened, in the presence of foliar tebufenozide",2.5 % dwt
same,Average PHB accumulated,"treated T2 1I offspring of best T1 1I plant, in the presence of inducing agent",4.2±2.5 % dwt
